Data on 3 compounds can be found in article PMC7093416, “Selective USP7 inhibition elicits cancer cell killing through a p53-dependent mechanism” (Scientific Reports, 2020).

This assay deals with MCF7 cells. Description: 3' DGE RNA-seq transcriptional profiling. It counts as cell-based. More on the design: log2FoldChange: concentration or dose not given beside the values. The following applies: for log2FoldChange: gene ABCA12. The method, then:
The DGE RNA sequencing was performed following the published method[39],[40] with modifications as described below. MCF7 cells were seeded in a 384 well plate at 2500 cells per well, allowed to adhere for 24 hours, then treated with two doses in triplicate of XL177A, XL177B, Nutlin-3, or DMSO. After 24 hours of treatment, an EL405x plate washer (BioTek) was used to aspirate the media and wash once with PBS. Cells were lysed in the plate with 10 µl of lysis buffer (1x Qiagen TCL, 1% BME) for 5 minutes at room temperature, then stored at −80 °C. Automated liquid handling was performed with assistance from ICCB-Longwood Screening Facility. A BRAVO Automated Liquid Handling Platform (Agilent) was used for RNA extraction as follows. The lysate was mixed and 10 µl was transferred to a 384 well PCR plate. 28 µl of homemade SPRI[66] (solid-phase reversible immobilization) beads were added to the lysate and mixed. After 5 minutes, the beads were pulled down by placing the plate on a magnet, then the beads were washed twice with 80% ethanol. Beads were air dried for 1 minute, then 20 µl of nuclease free water was added, the plate was removed from the magnet, and the beads were resuspended. After 5 minutes, the plate was placed back on the magnet to pull down the beads. The supernatant was transferred to a fresh 384 well plate. RNA quantity was checked with the Qubit Fluorometer and RNA quality was assessed using the Agilent BioAnalyzer RNA 6000 Pico Kit. The BRAVO platform was again used to transfer 5 µl of supernatant was transferred to a fresh 384 well plate with RT master mix and 1 µl of barcoded E3V6NEXT adapters for reverse transcription and template switching. The plate was incubated for 90 minutes at 42 °C, then cDNA was pooled, purified with the QIAquick PCR purification kit. The full-length cDNA was treated with Exonuclease I to remove excess primers for 30 minutes at 37 °C then amplified x5 cycles with Advantage 2 PCR Enzyme System using the SINGV6 primer. The amplified full-length cDNA was purified with Agencourt AMPure XP magnetic beads and quantitated by Qubit Fluorometer. The sequencing library was prepared using the Nextera DNA kit following the manufacturer’s instructions. Briefly, 55 ng of cDNA was tagmented for 5 minutes at 55 °C then purified using Zymo DNA Clean & Concetrator-5 column, then amplified x7 cycles and purified using a 0.9x ratio of AMPure XP magnetic beads. The library size distribution was assessed by Agilent BioAnalyzer HS DNA Kit before it was quantified by qPCR and sequenced on an Illumina NextSeq at the Biopolymers Facility at Harvard Medical School.
The bcbio-nextgen single cell RNA-seq analysis pipeline (https://bcbio-nextgen.readthedocs.io/en/latest/) was used to deconvolve the well barcodes and convert reads to counts. Any detected barcode that differed by more than one base from an expected barcode was removed. Unique reads were identified using unique molecular identifiers (UMIs) in order to remove PCR duplicates. The reads remaining after these filters were aligned to the transcriptome (GRCh38) using RapMap[67]. The R package DESeq. 2 version 1.20.0 (R version 3.5.1) was used for differential expression analysis.

Structures are written as SMILES.

For `COc1ccc(C2=N[C@@H](c3ccc(Cl)cc3)[C@@H](c3ccc(Cl)cc3)N2C(=O)N2CCNC(=O)C2)c(OC(C)C)c1` [Nutlin-3A], the “direct p53 target genes” value (24 hours, low and high dose) is reported as “enriched for the direct p53 target genes”.

For `CN1CCN(CCC(=O)Nc2ccc3c(=O)n(CC4(O)CCN(C(=O)[C@@H](CCCNC(=O)c5ccc6c(Cl)c7c(nc6c5)CCCC7)Cc5ccccc5)CC4)cnc3c2)CC1` [XL177A], the “DREAM complex target genes” value (24 hours, low and high dose) is “strongly downregulated the DREAM complex targets”. Moreover, the “direct p53 target genes” value (24 hours, low and high dose) is reported as “strongly upregulated the p53 targets”. In addition, the log2FoldChange was 0.471 (concentration 0.1) and 0.4983 (concentration 1).

`CN1CCN(CCC(=O)Nc2ccc3c(=O)n(CC4(O)CCN(C(=O)[C@H](CCCNC(=O)c5ccc6c(Cl)c7c(nc6c5)CCCC7)Cc5ccccc5)CC4)cnc3c2)CC1` [XL177B]: the “hierarchical clustering of transcriptional profile” value (24 hours, 0.1 or 1 μM) is recorded as “clustered with the vehicle (DMSO)-treated control cells”. The log2FoldChange is, setting by setting: (concentration 0.1) 0.1473; (concentration 1) 0.2612.
